# Test results from US11633373B2, “Method for reduction of behavioral disorders in pigs” (Alzchem Trostberg GmbH, priority 2020, dated 2023).
# “Also recorded” adds a separate entry of the source.
# Tested on: pigs (fattening animals of the Piétrain×Danbred breed)
# Assay: Tail biting (caudophagia) injury scoring in fattening pigs fed guanidinoacetic acid in the feed
# Format: in vivo, pig (Sus scrofa domesticus)
# Settings: for Number of animals score 3 or 4: regardless of available space; for Number of animals with score 1 (without abnormalities) / Number of animals with score 2 (dry bite marks, not bleeding) / Number of animals with score 3 (bloody bite marks, moderate inflammation) / Number of animals with score 4 ((partial) loss, high-grade inflammation, large bleeding wounds) / Number of animals, total score 3 + 4: 96 animals
# Description: A total of 1440 pigs (fattening animals of the Piétrain×Danbred breed) were used.
# From the 91st day of life, the experiment started with different dosage of different amounts of guanidinoacetic acid in the feed.
# After 60 days of life, 1152 animals were selected for the continuation of the experiment: Here, conspicuously weak animals and animals with easily recognizable injuries to the tail or other body parts were not used.
# In the subsequent fattening period, the pigs were kept in 72 pens of 16 animals each on concrete slats without bedding. A drawing of the experimental setup is shown with FIGS. 1 to 3. The slat width was 18 mm with a tread width of 80 mm. Feed was provided ad libitum by means of type RM 05 mash feeders from IBO Stalltechnik GmbH. The feed was supplied via floury feed.
# For each experimental parameter, 6 pens of mixed-sex were housed. For an even distribution, the animals were first divided into 4 main groups 1, 2, 3 and 4 of 288 animals each. Then, from each main group, animals were divided into 3 subgroups A, B and C (SG A, SG B, SG C) of 96 animals each, and from each subgroup, animals were separated into 6 pens. Thus, there were 12 experimental parameters with 6 replications each and 16 animals per replication, corresponding to 1152 animals.
# The 72 pens were divided into 6 sections in a stable. All 4 main groups were represented in each section, with a pen size assigned to each main group (see Table 1). The pen sizes of main groups 3 and 4 were realized by removing railings from the standard pen of 12 m^2. To realize the pen size of main group 2, a part of a 24 m^2 pen was reduced by a railing.
# Feeding from 91 days of life was performed in 2 phases, which were identical across all 4 main groups.
# For subgroups B and C, guanidinoacetic acid was added to the feed in amounts of 0.04 wt. % and 0.12 wt. %, respectively, relative to the solid feed.
# A maximum of 2 failures occurred per experimental regime during the fattening phase. Here, the score was evaluated at the time of the failure.
# Essential for an evaluation of the stand is the ratio of uninjured or only slightly injured animals to moderately and severely injured animals. Since dry, non-bloody bite marks result from a playful non-aggressive act, animals with score 2 were added to the non-injured animals. Harmful to animal welfare is considered to occur at score 3 and above, i.e., bloody bite marks, resulting from aggressive acts that are no longer playful. Therefore, for an evaluation, the numbers for scores 3 and 4 were added and the percentage of these animals relative to the total number of the respective experimental group was evaluated.
# [1] = experiment B1: 0.04 wt. % GAA in feed, 0.75 m^2/animal
# [2] = experiment B2: 0.04 wt. % GAA in feed, 0.9 m^2/animal
# [3] = experiment B3: 0.04 wt. % GAA in feed, 1.5 m^2/animal
# [4] = experiment B4: 0.04 wt. % GAA in feed, 2.25 m^2/animal
# [5] = experiment C1: 0.12 wt. % GAA in feed, 0.75 m^2/animal
# [6] = experiment C2: 0.12 wt. % GAA in feed, 0.9 m^2/animal
# [7] = experiment C3: 0.12 wt. % GAA in feed, 1.5 m^2/animal
# [8] = experiment C4: 0.12 wt. % GAA in feed, 2.25 m^2/animal
# [9] = guanidinoacetic acid given orally to pigs
smiles,measurement,setting,value
"N=C(N)NCC(=O)O [guanidinoacetic acid, Guanidinoacetic acid]",Number of animals score 3 or 4,"0.04 wt. % GAA in feed, experiments B1 + B2 + B3 + B4 pooled, 384 animals",36
same,Injured animals (score 3 or 4),"0.04 wt. % GAA in feed, experiments B1 + B2 + B3 + B4 pooled, 384 animals, without supplementation 12.2%",9.4%
same,Reduction of injured animals versus no supplementation,"0.12 wt. % GAA in feed, 0.9 m^2/animal",almost halved the number of injured animals; also recorded: reduction of injured animals to almost half
same,Reduction of injured animals versus no supplementation,"0.12 wt. % GAA in feed, 1.5 m^2/animal",more than halved; also recorded: reduction of injured animals to more than half
same,Number of animals score 3 or 4,"0.12 wt. % GAA in feed, experiments C1 + C2 + C3 + C4 pooled, 384 animals",32
same,Injured animals (score 3 or 4),"0.12 wt. % GAA in feed, experiments C1 + C2 + C3 + C4 pooled, 384 animals, without supplementation 12.2%",8.3%
same,Number of animals with score 1 (without abnormalities),[1],41
same,"Number of animals with score 2 (dry bite marks, not bleeding)",[1],41
same,"Number of animals with score 3 (bloody bite marks, moderate inflammation)",[1],10
same,"Number of animals with score 4 ((partial) loss, high-grade inflammation, large bleeding wounds)",[1],4
same,"Number of animals, total score 3 + 4",[1],14
same,Injured animals (score 3 or 4),"experiment B1: 0.04 wt. % GAA in feed, 0.75 m^2/animal, without supplementation 15.6%",14.6%
same,Number of animals with score 1 (without abnormalities),[2],50
same,"Number of animals with score 2 (dry bite marks, not bleeding)",[2],36
same,"Number of animals with score 3 (bloody bite marks, moderate inflammation)",[2],8
same,"Number of animals with score 4 ((partial) loss, high-grade inflammation, large bleeding wounds)",[2],2
same,"Number of animals, total score 3 + 4",[2],10
same,Injured animals (score 3 or 4),"experiment B2: 0.04 wt. % GAA in feed, 0.9 m^2/animal, without supplementation 14.6%",10.4%
same,Number of animals with score 1 (without abnormalities),[3],54
same,"Number of animals with score 2 (dry bite marks, not bleeding)",[3],36
same,"Number of animals with score 3 (bloody bite marks, moderate inflammation)",[3],5
same,"Number of animals with score 4 ((partial) loss, high-grade inflammation, large bleeding wounds)",[3],1
same,"Number of animals, total score 3 + 4",[3],6
same,Injured animals (score 3 or 4),"experiment B3: 0.04 wt. % GAA in feed, 1.5 m^2/animal, without supplementation 11.5%",6.3%
same,Number of animals with score 1 (without abnormalities),[4],55
same,"Number of animals with score 2 (dry bite marks, not bleeding)",[4],35
same,"Number of animals with score 3 (bloody bite marks, moderate inflammation)",[4],6
same,"Number of animals with score 4 ((partial) loss, high-grade inflammation, large bleeding wounds)",[4],0
same,"Number of animals, total score 3 + 4",[4],6
same,Injured animals (score 3 or 4),"experiment B4: 0.04 wt. % GAA in feed, 2.25 m^2/animal, without supplementation 7.3%",6.3%
same,Number of animals with score 1 (without abnormalities),[5],40
same,"Number of animals with score 2 (dry bite marks, not bleeding)",[5],43
same,"Number of animals with score 3 (bloody bite marks, moderate inflammation)",[5],10
same,"Number of animals with score 4 ((partial) loss, high-grade inflammation, large bleeding wounds)",[5],3
same,"Number of animals, total score 3 + 4",[5],13
same,Injured animals (score 3 or 4),"experiment C1: 0.12 wt. % GAA in feed, 0.75 m^2/animal, without supplementation 15.6%",13.5%
same,Number of animals with score 1 (without abnormalities),[6],52
same,"Number of animals with score 2 (dry bite marks, not bleeding)",[6],36
same,"Number of animals with score 3 (bloody bite marks, moderate inflammation)",[6],6
same,"Number of animals with score 4 ((partial) loss, high-grade inflammation, large bleeding wounds)",[6],2
same,"Number of animals, total score 3 + 4",[6],8
same,Injured animals (score 3 or 4),"experiment C2: 0.12 wt. % GAA in feed, 0.9 m^2/animal, without supplementation 14.6%",8.3%
same,Number of animals with score 1 (without abnormalities),[7],56
same,"Number of animals with score 2 (dry bite marks, not bleeding)",[7],35
same,"Number of animals with score 3 (bloody bite marks, moderate inflammation)",[7],4
same,"Number of animals with score 4 ((partial) loss, high-grade inflammation, large bleeding wounds)",[7],1
same,"Number of animals, total score 3 + 4",[7],5
same,Injured animals (score 3 or 4),"experiment C3: 0.12 wt. % GAA in feed, 1.5 m^2/animal, without supplementation 11.5%",5.2%
same,Number of animals with score 1 (without abnormalities),[8],55
same,"Number of animals with score 2 (dry bite marks, not bleeding)",[8],35
same,"Number of animals with score 3 (bloody bite marks, moderate inflammation)",[8],5
same,"Number of animals with score 4 ((partial) loss, high-grade inflammation, large bleeding wounds)",[8],1
same,"Number of animals, total score 3 + 4",[8],6
same,Injured animals (score 3 or 4),"experiment C4: 0.12 wt. % GAA in feed, 2.25 m^2/animal, without supplementation 7.3%",6.3%
same,Behavioral abnormalities in the form of tail biting (caudophagia) compared to the untreated control group,[9],less behavioral abnormalities in the form of tail biting
same,Biting attacks on conspecifics compared to an untreated control group,[9],fewer biting attacks on conspecifics
